Laboratory results reported in patent publication EP4666996A1, “COMPOSITION CONTAINING PEPTIDES OF VEGETABLE ORIGIN” (Quiris Healthcare GmbH & Co. KG, priority 2024, dated 2025).
Read-outs that look alike come from different tables or passages of the source. No end group written: not given here.

Assays:
BJ-5ta cells = assay: Cell viability assay (MTT); format: cell-based
Protocol: (§1) Fibroblast cells (BJ-5ta, CRL-4001) were cultured in complete medium, a 4:1 mixture of Dulbecco's medium and Medium 199 with supplements as 4 parts of Dulbecco's Modified Eagle's Medium containing 4 mM L-glutamine, 4.5 g/L glucose and 1.5 g/L sodium bicarbonate, 1 part of Medium 199 supplemented with 0.01 mg/mL hygromycin B 10% fetal bovine serum with incubation at 37 °C under 5% CO2 atmosphere.
A total of 10^4 fibroblasts/well were seeded in 96-well plates and treated with pea, rice and collagen peptides (from 1 to 20 mg/mL) and ascorbic acid (from 0.1 to 10 mg/mL), CR1, CR2, CP1, CP2, CP3, CP4 and CP5 peptides (from 25 to 500 µM) or H2O2 (from 0.1 to 1 mg/mL) or vehicle (H2O) in complete growth media for 48 h at 37 °C under 5% CO2 atmosphere. Subsequently, the treatment solvent was aspirated and 100 µL/well of 3-(4,5-dimethylthiazol-2-yl)-2,5-diphenyltetrazolium bromide (MTT) filtered solution added. After 2 h of incubation at 37 °C under 5% CO2 atmosphere, 0.5 mg/mL solution was aspirated and 100 µL/well of the lysis buffer (8 mM HCl + 0.5% NP-40 in DMSO) added. After 10 min of slow shaking, the absorbance at 575 nm was read on the Synergy H1 fluorescence plate reader (Biotek, Bad Friedrichshall, Germany).
In this example, the effect of pea and rice peptides was tested on BJ-5ta cells in a modified MTT assay as described above. […]

ABTS assay = format: biochemical
Protocol: The ABTS assay is based on the reduction of the 2,2-azino-bis-(3-ethylbenzothiazoline-6-sulfonic acid (ABTS) radical induced by antioxidants. The ABTS radical cation (ABTS+● was prepared by mixing a 7 mM ABTS solution (Sigma-Aldrich, Milan, Italy) with 2.45 mM potassium persulfate (1:1) and stored for 16 h at room temperature and in dark. To prepare the ABTS reagent, the ABTS+● was diluted in 5 mM phosphate buffer (pH 7.4) to obtain a stable absorbance of 0.700 (±0.02) at 730 nm. For the assay, 10 µL of samples were added to 140 µL of diluted the ABTS+● at the following final concentrations: 0.01 and 0.1 mg/mL for pea and rice peptides; 0.1, 1, 10 and 20 mg/mL for collagen peptides; 0.0001, 0.001 and 0.01 mg/mL for ascorbic acid; 1, 10, 25, 50, 100 µM for CR1, CP1 and CP2 peptides. The microplate was incubated for 30 min at 30 °C and the absorbance was read at 730 nm using a Synergy™ HT-multimode microplate reader (Biotek Instruments, Winooski, VT, USA). The TEAC values were calculated using a Trolox (Sigma-Aldrich, Milan, Italy) calibration curve (60-320 µM).
In this example, the antioxidant activity of pea and rice peptides was tested in vitro in an ABTS Assay as described above.
In this example, the antioxidant activity of peptides CP1, CP2 and CR1 (see Table 1 above) was tested in vitro in an ABTS Assay as described above.

FRAP assay [1] = format: biochemical; details: pea and rice peptides 0.01-1 mg/mL; collagen 1-20 mg/mL; ascorbic acid 0.00001-0.1 mg/mL
Caco-2 cells [2] = assay: Trans-epithelial transport of digested and non-digested hydrolysates, LC-MS/MS of AP and BL samples; details: without H2O2; for common sequences in BL rice digested vs. BL rice not digested samples: rice hydrolysates; for common sequences in AP pea digested vs. BL pea digested samples: digested pea hydrolysate; for detection in the AP pea and BL pea samples: non-digested pea hydrolysate
Protocol: (§5) Caco-2 cells, obtained from INSERM (Paris, France) were routinely sub-cultured at 50% confluence and maintained at 37°C in a 5% CO2 atmosphere in DMEM containing 25 mM of glucose, 3.7 g/L of NaHCOs, 4 mM of stable L-glutamine, 1% non-essential amino acids, 100 U/L of penicillin and 100 µg/L of streptomycin (complete medium), supplemented with 10% heat-inactivated FBS. To facilitate the establishment of a confluent cell monolayer, cells were seeded on a Transwell at a density of 3.5 × 10^5 cells/cm^2 in complete medium supplemented with 10% FBS in both the AP and BL compartments for a period of 2 days. Cells were seeded, and on day three, they were moved to an FBS-free medium in the AP compartment. They were then allowed to differentiate for 18-21 days, with three weekly medium changes in between. Transepithelial electrical resistance (TEER) of differentiated Caco-2 cells was measured at 37 °C using the Millicell voltmeter device (Millipore Co., Billerica, MA, USA) both before and after the transport experiments for monitoring the integrity of the cell monolayers.
(§6) TEER measurement was used to verify the integrity and differentiation of the cell monolayer prior to transport experiments. Pea and rice peptides trans-epithelial transit was assessed in differentiated Caco-2 cells in transport buffer solution (137 mM NaCl, 5.36 mM KCl, 1.26 mM CaCl2, and 1.1 mM MgCl2, 5.5 mM glucose). The apical (AP) solutions were kept at pH 6.0 (buffered with 10 mM morpholinoethane sulfonic acid) and the basolateral (BL) solutions were kept at pH 7.4 (buffered with 10 mM N-2-hydroxyethylpiperazine-N-4-butanesulfonic acid) in order to replicate the pH conditions found in vivo in the small intestinal mucosa. Before the transport assay, cells were equilibrated in HBSS for 15 minutes at 37°C. In the AP compartment with the AP transport solution (500 µL) and the BL compartment with the BL transport solution (700 µL), rice and pea (5 mg/mL) were added. All BL and AP solutions were collected after two hours of absorption experiment carried out at 37°C, and they were kept at - 80°C before analysis. Transport experiments were performed in duplicate.
(§7) The enzymatic hydrolysis of pea and rice peptides was performed using pepsin and trypsin to simulate gastrointestinal digestion. For pepsin and trypsin digestion, the pH of the solution was adjusted to pH 2 and 8, respectively, by adding 1 M HCl or 1 M NaOH. The pepsin and trypsin solutions were added to the solution at a 1:100 (w/w) E/S ratio. After 60 min of peptic digestion at 37°C, pepsin was inactivated by adjusting the pH to 8; whereas the tryptic digestion (15 minutes) was blocked by heating the solution at 95 °C for 5 min (Lo et al., 2005). Collagen, pea and rice hydrolysates were passed through ultrafiltration membranes for the complete enzymes removal, using a Millipore UF system (Millipore, Bedford, MA, USA). Recovered peptides were lyophilized and stored at -80 °C for high-resolution LC-MS/MS analysis.

Caco-2 cells [3] = tested on: Caco-2 cells
Protocol: as §5, §6, §7

collagen [4] = assay: ELISA assay, collagen secretion; format: cell-based, human; details: peptides of Table 1, BJ-5ta cells
Protocol: (§2) Cytokines, metalloproteases, collagen and elastin quantification was performed using human Authentikine® ELISA kits (Proteintech, Rosemont, USA) and Cusabio ELISA kits (Houston, TX, USA) according to the manufacturer's instruction and. Briefly, the supernatants collected from treated and H20-stimulated bj-5ta cells were centrifuged at 13,300 × g for 10 minutes at 4°C, then the pellet and insoluble material were discarded. For the experiments, 100 µL of samples were added to each well and the microplate was incubated for 2 hours at 37°C. After the incubation, the solutions were discarded and each well washed 4 times with 300 µL of Wash Buffer solution, then 100 µL of Detection antibody solution were added to each well and the microplate was incubated for 1 hours at 37°C. […] After 4 washes, the TMB substrate (100 µL/well) was added and reactions were stopped after 20 min with 50 µL of Stop Solution and the absorbance at 450 and 540 nm was measured using the Synergy H1 plate reader (BioTek Instruments).
(§3) In this example, the secretion of collagen and elastin with pea and rice peptides was tested in vitro by an ELISA assay as described above. Thereby, ECM stability is evaluated.
(§4) In this example, the secretion of collagen and elastin with the peptides of Table 1 was tested in vitro by an ELISA assay as described above. Thereby, ECM stability is evaluated.

collagen [5] = assay: Western blot analysis, collagen protein level; format: cell-based
Protocol: as §1
A total of 2.2 × 10^5 BJ-5ta cells/well were seeded on 24-well plates and incubated at 37 °C under a 5% CO2 atmosphere. The following day, cells were treated with pea, rice and collagen peptides (5 mg/mL), CR1, CR2, CP1, CP4 and CP5 (250 and 500 µM), CP2 (100, 250 and 500 µM) or vehicle (H2O) in a complete growth medium for 24 h. The day after, cells were stimulated with H2O2 (200 µM) or vehicle (H2O) for 1 h. […] Total proteins were quantified by Bradford method and 50 µg of total proteins loaded on a precast 7.5% Sodium Dodecyl Sulfate - Polyacrylamide (SDS-PAGE) gel at 130 V for 45 min. […] Target proteins, on milk or BSA blocked membrane, were detected by primary antibodies as follows: anti-collagen, anti-elastin, anti-phospho(Thr172)-AMPK, anti-phospho(Ser473)-Akt, anti-NF-κB and anti-β-actin. Secondary antibodies conjugated with HRP and a chemiluminescent reagent were used to visualize target proteins and their signal was quantified using the Image Lab Software (Biorad). […]

FRAP assay [6] = format: biochemical; details: synthesized peptides up to 200 µM
Protocol: The FRAP assay evaluates the ability of a sample to reduce ferric ion (Fe3^+) into ferrous ion (Fe2^+). Thus, 10 µL of samples were mixed with 140 µL of FRAP reagent until reaching the following concentrations: 0.01, 0.1 and 1 mg/mL for pea and rice peptides; 1, 10 and 20 mg/mL for collagen peptides; 0.00001, 0.0001, 0.001 and 0.1 mg/mL for ascorbic acid; 10, 100 and 200 µM for CR1 and CP5 peptides; 25, 50, 100 and 200 µM for CP1 and CP2 peptides. The FRAP reagent was prepared by mixing 1.3 mL of a 10 mM TPTZ (Sigma-Aldrich, Milan, Italy) solution in 40 mM HCl, 1.3 mL of 20 mM FeCl3 × 6H2O and 13 mL of 0.3 M acetate buffer (pH 3.6). The microplate was incubated for 30 min at 37 °C and the absorbance was read at 595 nm. The results were calculated by a Trolox (Sigma-Aldrich, Milan, Italy) standard curve obtained using different concentrations (3-400 µM)). Absorbances were recorded on a Synergy™ HT-multimode microplate reader.
In this example, the antioxidant activity of pea and rice peptides was tested in vitro in a FRAP Assay as described above.
In this example, the antioxidant activity of peptides CP1, CP2, CP5 and CR1 was tested in vitro in a FRAP Assay as described above.

elastin [7] = assay: ELISA assay, elastin secretion; format: cell-based, human
Protocol: as §2, §3, §4

elastin [8] = assay: Western blot analysis, elastin protein level; format: cell-based
Protocol: as §1
A total of 2.2 × 10^5 BJ-5ta cells/well were seeded on 24-well plates and incubated at 37 °C under a 5% CO2 atmosphere. The following day, cells were treated with pea, rice and collagen peptides (5 mg/mL), CR1, CR2, CP1, CP4 and CP5 (250 and 500 µM), CP2 (100, 250 and 500 µM) or vehicle (H2O) in a complete growth medium for 24 h. The day after, cells were stimulated with H2O2 (200 µM) or vehicle (H2O) for 1 h. After each treatment, cells were scraped in 30 µL ice-cold lysis buffer [RIPA buffer + inhibitor cocktail + 1:100 PMSF + 1:100 Na-orthovanadate] and transferred in an ice-cold microcentrifuge tube. After centrifugation at 13.300g for 15 min at 4 °C, the supernatant was recovered and transferred into a new ice-cold tube. Total proteins were quantified by Bradford method and 50 µg of total proteins loaded on a precast 7.5% Sodium Dodecyl Sulfate - Polyacrylamide (SDS-PAGE) gel at 130 V for 45 min. Subsequently, the gel was pre-equilibrated with 0.04% SDS in H2O for 15 min at RT and transferred to a nitrocellulose membrane (Mini nitrocellulose Transfer Packs,) using a trans-Blot Turbo at 1.3 A, 25 V for 7 min. Target proteins, on milk or BSA blocked membrane, were detected by primary antibodies as follows: anti-collagen, anti-elastin, anti-phospho(Thr172)-AMPK, anti-phospho(Ser473)-Akt, anti-NF-κB and anti-β-actin. Secondary antibodies conjugated with HRP and a chemiluminescent reagent were used to visualize target proteins and their signal was quantified using the Image Lab Software (Biorad). The internal control β-actin was used to normalize loading variations. […]

[9] = 250 µM, screening among CR1, CR2, CP1, CP2, CP4, CP5
[10] = 500 µM, among CR1, CR2, CP1, CP2, CP4, CP5

## OO [H2O2]
BJ-5ta cells; skin fibroblasts exposed to increasing concentration of H2O2
  concentration up to which no cytotoxic effects: ≤ 400 µM

## O=C1O[C@H]([C@@H](O)CO)C(O)=C1O [ascorbic acid]
BJ-5ta cells; BJ-5ta cells, 48 h
  concentrations with effects on cellular viability: more than 1 mg/mL
ABTS assay; pea and rice peptides 0.01 and 0.1 mg/mL, collagen 0.1-20 mg/mL, ascorbic acid 0.0001-0.01 mg/mL
  ABTS radical scavenging activity, dependence on concentration: decreasing radical scavenging activity with increasing concentration
FRAP assay [1]
  ferric reducing antioxidant power, dependence on concentration: increase

## AEDVGEEVER [CR1, AEDVGEEVER]
Caco-2 cells [2]
  common sequences in BL rice digested vs. BL rice not digested samples: found

## AGFAGDDAPR [CR2, AGFAGDDAPR]
Caco-2 cells [3]
  common sequences in BL rice digested vs. BL rice not digested samples: found

## DWLLGATGTGK (DVVLLGATGTGK; listed as Oryza sativa) [CR3]
Caco-2 cells [2]
  common sequences in BL rice digested vs. BL rice not digested samples: found

## DWPEWVR [CP2, synthesized pea peptide]
Collagen [4]
  stimulation of collagen secretion: strongest stimulation of collagen secretion
Collagen [5]; [9]
  modulation of collagen protein level: highest modulation of collagen protein level
Collagen [5]; [10]
  modulation of collagen protein level: highest modulation of collagen protein level
FRAP assay [6]
  ferric reducing antioxidant power compared with CR1: higher than with CR1
  ferric reducing antioxidant power, dependence on concentration: increases with increasing concentration
FRAP assay [6]; compared to control C
  ferric reducing antioxidant power: higher than the control C
Caco-2 cells [2]
  common sequences in AP pea digested vs. BL pea digested samples: found
  detection in the AP pea and BL pea samples: detected
Elastin [7]; CP2 at 100 µM versus other peptides at 500 µM
  stimulation of elastin secretion: higher than for the other tested peptides at a concentration of 500 µM
Elastin [7]; peptides of Table 1, BJ-5ta cells
  stimulation of elastin secretion: strongest stimulation of elastin secretion
ABTS assay; synthesized peptides 1-100 µM
  ABTS radical scavenging activity compared with CR1: lower than with CR1
  ABTS radical scavenging activity, dependence on concentration: decreases with increasing concentration
ABTS assay; synthesized peptides 1-100 µM, compared to control C
  ABTS radical scavenging activity: lower than the one of the control C
Elastin [8]; [9]
  modulation of elastin protein level: highest modulation of elastin protein level
Elastin [8]; 500 µM
  modulation of elastin protein level compared to CP4 and CP5: higher modulation of elastin protein level compared to CP4 and CP5
Elastin [8]; [10]
  modulation of elastin protein level: highest modulation of elastin protein level

## ENIADAAR [CP3, ENIADAAR]
Caco-2 cells [2]
  common sequences in AP pea digested vs. BL pea digested samples: found
  detection in the AP pea and BL pea samples: detected

## GSRQEEEEDEDEERQPR [CP4, GSRQEEEEDEDEERQPR]
Caco-2 cells [2]
  common sequences in AP pea digested vs. BL pea digested samples: found
  detection in the AP pea and BL pea samples: detected

## SEQ-ID:2: peptide identified by MS in pea hydrolysate; sequence not printed in the text (DTSETWAIR; listed as Pisum sativum)
Caco-2 cells [2]
  common sequences in AP pea digested vs. BL pea digested samples: found
  detection in the AP pea and BL pea samples: detected

## SEQ-ID:12: peptide identified by MS in pea hydrolysate; sequence not printed in the text (SSNNQLDQMPR; listed as Pisum sativum)
Caco-2 cells [2]
  common sequences in AP pea digested vs. BL pea digested samples: found
  detection in the AP pea and BL pea samples: detected

## SEQ-ID:15: peptide identified by MS in pea hydrolysate; sequence not printed in the text (LDEAAEPAALER; listed as Pisum sativum)
Caco-2 cells [2]
  common sequences in AP pea digested vs. BL pea digested samples: found

## SEQ-ID:35: peptide identified by MS in pea hydrolysate; sequence not printed in the text (SVFNGEVR; listed as Pisum sativum)
Caco-2 cells [2]
  common sequences in AP pea digested vs. BL pea digested samples: found
